# Test results published in patent publication US20230322785A1, “ADENOSINE A2A AND A2B RECEPTOR DUAL ANTAGONISTS FOR IMMUNO-ONCOLOGY” (Merck Sharp & Dohme LLC, priority 2020, published 2023).
# Target: T1, human A2A adenosine receptor (Homo sapiens, UniProt P29274)
# T1 construct: expressed in transfected cells; host or cells: HEK293 or CHO cells
# Assay: A2A binding affinity, Method (B): scintillation proximity assay (SPA) with [3H]SCH58261
# Conditions: membranes of HEK293 or CHO cells expressing the human receptor
# Excerpt: Method (A) describes the procedure used to measure A2A binding affinity using radioligand binding. Method (B) describes the procedure used to measure A2A binding affinity using SPA technology. The method used to measure A2B binding affinity is also described below. The method used to determine the A2A IC50 value reported for each compound in the table is indicated next to the reported value. The A2B IC50 value measured using the A2B binding affinity assay is shown in the table next to the compound under the corresponding A2A value.
# The A2A receptor affinity binding assay measured the amount of binding of a tritiated ligand with high affinity for the A2A adenosine receptor to membranes made from HEK293 or CHO cells recombinantly expressing the human A2A adenosine receptor, in the presence of varying concentrations of a compound of the invention. The data were generated using either filtration binding or a homogenous scintillation proximity assay (SPA).
# Method (B): Measurement of A2A Binding Affinity Using SPA
# Binding affinity using SPA was conducted as follows. Test compounds (50 nL) were dispensed into individual wells of a 384-well OptiPlate™ well (Perkin Elmer) by Echo® acoustic liquid transfer (Labcyte). 20 µL of 1.25 nM [^3H] SCH58261 ((7-(2-phenylethyl)-5-amino-2-(2-furyl)-pyrazolo-[4,3-e]-1,2,4-triazolo[1,5-c]pyrimidine)) in DPBS assay buffer (Dulbecco’s phosphate buffered saline without calcium and magnesium, ThermoFisher Scientific, Cat. No. A1285601) supplemented with 10 mM MgCl2 was added. A2A receptor-expressing membranes were incubated with 20 µg/mL adenosine deaminase (Roche, Cat. No. 10 102 105 001) for 15 min at room temperature. The receptor-expressing membranes were then combined with wheat germ agglutinin-coated yttrium silicate SPA beads (GE Healthcare, Cat. No. RPNQ0023) in a ratio of […] (w/w) and incubated for 30 min at room temperature. 30 µL of the membrane/bead mixture (0.25 µg and 25 µg per well respectively) were added to the 384-well OptiPlate™ well. To define total and non-specific binding, wells containing 1% DMSO or 1 µM CGS 15943 (Tocris Bioscience, Cat. No. 1699) respectively were also included in the experiment. The plate was incubated for 1 h at room temperature with agitation. The assay plate was then incubated for an h to allow the beads to settle before data were collected using a TopCount® (Perkin Elmer) scintillation counter. After normalization to total and non-specific binding, the percent effect at each compound concentration was calculated. The plot of percent effect versus the log of compound concentration was analyzed electronically using a 4-parameter logistic fit based on the Levenberg-Marquardt algorithm to generate IC50 values.
# T1 sequence (P29274 whole entry): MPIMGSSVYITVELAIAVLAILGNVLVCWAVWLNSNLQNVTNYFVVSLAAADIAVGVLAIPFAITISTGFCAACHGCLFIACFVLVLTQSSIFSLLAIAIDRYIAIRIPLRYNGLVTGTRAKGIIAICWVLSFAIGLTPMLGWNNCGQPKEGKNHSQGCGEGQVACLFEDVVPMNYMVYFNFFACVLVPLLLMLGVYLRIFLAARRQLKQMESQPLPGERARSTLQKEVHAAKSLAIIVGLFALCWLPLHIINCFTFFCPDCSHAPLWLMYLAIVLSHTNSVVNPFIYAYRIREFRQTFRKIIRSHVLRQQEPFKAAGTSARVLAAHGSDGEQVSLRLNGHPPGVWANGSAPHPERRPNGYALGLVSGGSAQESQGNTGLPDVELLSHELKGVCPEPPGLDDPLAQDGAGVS
row,SMILES,IC50
1,"COc1cccc2c1nc(N)n1nc(CN(Cc3ccnc4[nH]ccc34)CC3CC3)nc21 [Example 16.10, 2-((((1H-pyrrolo[2,3-b]pyridin-4-yl)methyl)(cyclopropylmethyl)amino)methyl)-7-methoxy-[1,2,4]triazolo[1,5-c]quinazolin-5-amine]",2.3 nM
2,"COc1cccc2c1nc(N)n1nc(CNCc3cccc(C(F)(F)F)c3)nc21 [Example 8.5, 7-methoxy-2-(((3-(trifluoromethyl)benzyl)amino)methyl)-[1,2,4]triazolo[1,5-c]quinazolin-5-amine]",11.2 nM
3,"COc1cccc2c1nc(N)n1nc(CN(C)Cc3ccc(C(F)(F)F)cc3)nc21 [Example 8.3, 7-methoxy-2-((methyl(4-(trifluoromethyl)benzyl)amino)methyl)-[1,2,4]triazolo[1,5-c]quinazolin-5-amine]",6.4 nM
4,"COc1ccc(CN(Cc2nc3c4cccc(OC)c4nc(N)n3n2)CC2CC2)cn1 [Example 16.5, 2-(((cyclopropylmethyl)((6-methoxypyridin-3-yl)methyl)amino)methyl)-7-methoxy-[1,2,4]triazolo[1,5-c]quinazolin-5-amine]",9.2 nM
5,"COc1cccc2c1nc(N)n1nc(CN(Cc3ccc(N4CCOCC4)nc3)CC3CC3)nc21 [Example 16.4, 2-(((cyclopropylmethyl)((6-morpholinopyridin-3-yl)methyl)amino)methyl)-7-methoxy-[1,2,4]triazolo[1,5-c]quinazolin-5-amine]",10.9 nM
6,"COc1cccc2c1nc(N)n1nc(CNC(C)(C)C(F)(F)F)nc21 [Example 10.10, 7-methoxy-2-(((1,1,1-trifluoro-2-methylpropan-2-yl)amino)methyl)-[1,2,4]triazolo[1,5-c]quinazolin-5-amine]",4.8 nM
7,"COc1cccc2c1nc(N)n1nc(CN(Cc3ccc(C(F)(F)F)cc3)C[C@@H]3CO3)nc21 [Example 18.1, (R)-7-methoxy-2-(((oxiran-2-ylmethyl)(4-(trifluoromethyl)benzyl)amino)methyl)-[1,2,4]triazolo[1,5-c]quinazolin-5-amine]",20.2 nM
8,"COc1cccc2c1nc(N)n1nc(CNCc3ccc(OC(F)(F)F)cc3)nc21 [Example 8.6, 7-methoxy-2-(((4-(trifluoromethoxy)benzyl)amino)methyl)-[1,2,4]triazolo[1,5-c]quinazolin-5-amine]",8.9 nM
9,"COc1cccc2c1nc(N)n1nc(CN(CCC3CC3)Cc3ccc(C(F)(F)F)cc3)nc21 [Example 15.6, 2-(((2-cyclopropylethyl)(4-(trifluoromethyl)benzyl)amino)methyl)-7-methoxy-[1,2,4]triazolo[1,5-c]quinazolin-5-amine]",7.1 nM
10,"COc1cccc2c1nc(N)n1nc(CCNCC(F)(F)C(F)(F)F)nc21 [Example 22.8, 7-methoxy-2-(2-((2,2,3,3,3-pentafluoropropyl)amino)ethyl)-[1,2,4]triazolo[1,5-c] quinazolin-5-amine]",10.9 nM
11,"COc1cccc2c1nc(N)n1nc(CN(Cc3ccc(C(F)(F)F)cc3)CC(C)C)nc21 [Example 15.4, 2-((isobutyl(4-(trifluoromethyl)benzyl)amino)methyl)-7-methoxy-[1,2,4]triazolo[1,5-c]quinazolin-5-amine]",4.2 nM
12,"CCN(Cc1ccc(OC(F)(F)F)cc1)Cc1nc2c3cccc(OC)c3nc(N)n2n1 [Example 15.8, 2-((ethyl(4-(trifluoromethoxy)benzyl)amino)methyl)-7-methoxy-[1,2,4]triazolo[1,5-c]quinazolin-5-amine]",3.2 nM
13,"COc1cccc2c1nc(N)n1nc(CN(Cc3ccccn3)CC3CC3)nc21 [Example 16.1, 2-(((cyclopropylmethyl)(pyridin-2-ylmethyl)amino)methyl)-7-methoxy-[1,2,4]triazolo[1,5-c]quinazolin-5-amine]",12.8 nM
14,"COc1cccc2c1nc(N)n1nc(CCN[C@@H](C)c3ccc(C(F)(F)F)cc3)nc21 [Example 22.7, (S)-7-methoxy-2-(2-((1-(4-(trifluoromethyl)phenyl)ethyl)amino)ethyl)-[1,2,4]triazolo[1,5-c]quinazolin-5-amine]",27.3 nM
15,"COc1cccc2c1nc(N)n1nc(CNCC3CC3)nc21 [Example 10.12, 2-(((cyclopropylmethyl)amino)methyl)-7-methoxy-[1,2,4]triazolo[1,5-c]quinazolin-5-amine]",27.3 nM
16,"CCN(CC)Cc1nc2c3cccc(OC)c3nc(N)n2n1 [Example 5.3, 2-((diethylamino)methyl)-7-methoxy-[1,2,4]triazolo[1,5-c]quinazolin-5-amine]",24.4 nM
17,"COc1cccc2c1nc(N)n1nc(CNC(C)(C)c3cccnc3)nc21 [Example 7.5, 7-methoxy-2-(((2-(pyridin-3-yl)propan-2-yl)amino)methyl)-[1,2,4]triazolo[1,5-c]quinazolin-5-amine]",20.5 nM
18,"COc1cccc(CN(Cc2nc3c4cccc(OC)c4nc(N)n3n2)CC2CC2)c1 [Example 16.15, 2-(((cyclopropylmethyl)(3-methoxybenzyl)amino)methyl)-7-methoxy-[1,2,4]triazolo[1,5-c]quinazolin-5-amine]",3.5 nM
19,"COc1cccc2c1nc(N)n1nc(CNCc3ccc(S(F)(F)(F)(F)F)cc3)nc21 [Example 8.7, 7-methoxy-2-(((4-(pentafluoro-λ^6-sulfanyl)benzyl)amino)methyl)-[1,2,4]triazolo[1,5-c]quinazolin-5-amine]",6.4 nM
20,"COc1cccc2c1nc(N)n1nc(CNCC3(c4cccc(F)c4)CCOCC3)nc21 [Example 10.14, 2-((((4-(3-fluorophenyl)tetrahydro-2H-pyran-4-yl)methyl)amino)methyl)-7-methoxy-[1,2,4]triazolo[1,5-c]quinazolin-5-amine]",6.4 nM
21,"COc1cccc2c1nc(N)n1nc(CNC(=O)OCc3ccccc3)nc21 [Example 6.1, benzyl ((5-amino-7-methoxy-[1,2,4]triazolo[1,5-c]quinazolin-2-yl)methyl)carbamate]",5.9 nM
22,"COc1ccc(CN(Cc2nc3c4cccc(OC)c4nc(N)n3n2)CC2CC2)cc1 [Example 16.14, 2-(((cyclopropylmethyl)(4-methoxybenzyl)amino)methyl)-7-methoxy-[1,2,4]triazolo[1,5-c]quinazolin-5-amine]",7.2 nM
23,"COc1cccc2c1nc(N)n1nc(CNCC(F)(F)F)nc21 [Example 10.5, 7-methoxy-2-(((2,2,2-trifluoroethyl)amino)methyl)-[1,2,4]triazolo[1,5-c]quinazolin-5-amine]",5.9 nM
24,CCOC(=O)CN(Cc1nc2c3cccc(OC)c3nc(N)n2n1)CC1CC1 [Entry 17.2],13 nM
25,"COCCN(CCc1ccc(C(F)(F)F)cc1)Cc1nc2c3cccc(OC)c3nc(N)n2n1 [Example 15.14, 7-methoxy-2-(((2-methoxyethyl)(4-(trifluoromethyl)phenethyl)amino)methyl)-[1,2,4]triazolo[1,5-c]quinazolin-5-amine]",16.5 nM
26,"COc1cccc2c1nc(N)n1nc(CNC(C)(C)c3ccccn3)nc21 [Example 7.3, 7-methoxy-2-(((2-(pyridin-2-yl)propan-2-yl)amino)methyl)-[1,2,4]triazolo[1,5-c]quinazolin-5-amine]",18.5 nM
27,"COc1cccc2c1nc(N)n1nc(CN[C@@H](C)c3ccc(C(F)(F)F)cc3)nc21 [Example 7.2, (S)-7-methoxy-2-(((1-(4-(trifluoromethyl)phenyl)ethyl)amino)methyl)-[1,2,4]triazolo[1,5-c]quinazolin-5-amine]",7.2 nM
28,"COc1cccc2c1nc(N)n1nc(CN(Cc3ccc(OC4CCCCC4)nc3)CC3CC3)nc21 [Example 16.6, 2-((((6-(cyclohexyloxy)pyridin-3-yl)methyl)(cyclopropylmethyl)amino)methyl)-7-methoxy-[1,2,4]triazolo[1,5-c]quinazolin-5-amine]",6.6 nM
29,"COc1cccc2c1nc(N)n1nc(CN(C)c3cccc(Br)n3)nc21 [Example 10.11, 2-(((6-bromopyridin-2-yl)(methyl)amino)methyl)-7-methoxy-[1,2,4]triazolo [1,5-c]quinazolin-5-amine]",2.2 nM
30,"COc1cccc2c1nc(N)n1nc(CNC(=O)NCc3ccc(Cl)cc3)nc21 [Example 20.4, 1-((5-amino-7-methoxy-[1,2,4]triazolo[1,5-c]quinazolin-2-yl)methyl)-3-(4-chlorobenzyl)urea]",5.7 nM
